Assay results taken from patent US6207701A, “Urokinase inhibitors” (Abbott Laboratories, priority 2000, dated 2001).
Where a name gives a salt, the structure may show the parent alone.

How the values were obtained:
[1] = tested on: angiogenesis/capillary network formation; details: in vitro; Alliegro and Glaser, J. Cell Biol. 115: 402a (1991); cited from earlier work
[2] = target: T1, urokinase enzyme Abbokinase (Homo sapiens, UniProt P00749); test: Determination of Urokinase Inhibition (chromogenic substrate S-2444); assay type: biochemical; details: substrate S-2444 at 200 μM, pH 7.4, enzyme 2-3 nM, 405 nm, 15 minutes; read-out: Inhibitory Potency Against Urokinase, IC50
T1 construct: purchased Abbott Laboratories, Abbott Park, Ill
Description: Distributor of Chromogenix) at 200 μM. […] Four concentrations were chosen, then 5 μl of each were diluted to a total assay volume of 200 μl. […] Several vials were reconstituted as directed on the vial, aliquoted and stored frozen. The enzyme was further diluted in assay buffer and 10 μl was used in the assay. Enzyme concentration in the assay was 2-3 nM. […] The Spectromax® calculated the reaction rates which were used to calculate percent inhibition of the compounds of this invention versus the reaction rate of the enzyme in the absence of any inhibitor. The Ki 's of the inhibitors were calculated from the percent inhibition and previously established Km.

N=C(N)NC(=O)c1nc(Cl)c(N)nc1N [Amiloride]
inhibit angiogenesis/capillary network formation [1]: angiogenesis/capillary network formation in vitro

N=C(N)c1cc2c(Nc3nccs3)cccc2s1 [Example 2, 4-(1,3-thiazol-2-ylamino)-1-benzothiophene-2-carboximidamide trifluoroacetic acid salt]
IC50 [2]: 192 nM

N=C(N)c1cc2ccc(C(=O)Nc3ccccc3)cc2s1 [Example 3, 2-[amino(imino)methyl]-N-phenyl-1-benzothiophene-6-carboxamide]
IC50 [2]: 3220 nM

CC(C)Oc1cccc(NC(=O)c2ccc3cc(C(=N)N)sc3c2)c1 [Example 4, 2-[amino(imino)methyl]-N-(3-isopropoxyphenyl)-1-benzothiophene-6-carboxamide]
IC50 [2]: 680 nM
